According to patent US9963462B2 (priority 2015, dated 2018):

Experiments:
[1] = tested on: BH4 levels in SK-N-BE (2) cells; assay: SKN-N-BE (2) cellular assay, BH4 levels by LC-MS; assay type: cell-based; conditions: Homo sapiens, SKNBE2, read-out: SK-N-BE(2) IC50, SK-N-BE (2) cells, BH4 levels by LC-MS
[2] = molecular target: SNAP-hSPR (sepiapterin reductase, SPR) (Homo sapiens, UniProt P35270); assay: biochemical; assay type: binding; conditions: terbium labelled SNAP-hSPR / SSZ labelled SNAP-EGFP; read-out: hTR-FRET IC50
Chain of SNAP-hSPR (sepiapterin reductase, SPR) (P35270 whole entry): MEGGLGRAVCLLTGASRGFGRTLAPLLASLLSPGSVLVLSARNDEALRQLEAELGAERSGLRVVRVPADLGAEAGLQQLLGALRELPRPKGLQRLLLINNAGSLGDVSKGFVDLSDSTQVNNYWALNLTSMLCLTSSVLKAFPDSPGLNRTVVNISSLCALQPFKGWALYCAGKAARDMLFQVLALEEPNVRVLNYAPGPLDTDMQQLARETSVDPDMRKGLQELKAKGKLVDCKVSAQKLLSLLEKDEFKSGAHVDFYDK

Cc1c(C(=O)N2CC[C@@H](C(F)(F)F)C[C@H]2C)cnn1-c1nc2c(c(=O)[nH]1)CCC2 (single isomer, unassigned) [Q-0442]
IC50 [1]: 200 nM

Cc1c(C(=O)N2CC[C@H](C(F)(F)F)C[C@@H]2C)cnn1-c1nc2c(c(=O)[nH]1)CCC2 (single isomer, unassigned) [Q-0459]
IC50 [1]: 59 nM

Cc1c(C(=O)N2CCC(C(F)(F)F)CC2)cnn1-c1nc2ncsc2c(=O)[nH]1 [Q-0433]
IC50 [1]: 58000 nM

Cc1c(C(=O)N2CCC(C(F)(F)F)CC2)cnn1-c1nn2cccc2c(=O)[nH]1 [Q-0533]
IC50 [1]: 69 nM

CCCC(C#N)C1CCN(C(=O)c2cnn(-c3nn4cccc4c(=O)[nH]3)c2C)CC1 (stereo not drawn) [Q-0858]
IC50 [1]: 44 nM

Cc1c(C(=O)N2C[C@H]3C[C@@H]2CN3C(=O)OC(C)(C)C)cnn1-c1nn2cccc2c(=O)[nH]1 [Q-0860]
IC50 [1]: 1000 nM

Cc1c(C(=O)N2CC(CN(C)C(=O)OC(C)(C)C)C2)cnn1-c1nn2cccc2c(=O)[nH]1 [Q-0861]
IC50 [1]: 400 nM

Cc1c(C(=O)N2CCN3C(=O)CC[C@@H]3C2)cnn1-c1nn2cccc2c(=O)[nH]1 [Q-0862]
IC50 [1]: 10000 nM

O=C(c1cnn(-c2nn3c(F)ccc3c(=O)[nH]2)c1C1CC1)N1CCC1 [Q-0863]
IC50 [1]: 600 nM

Cc1c(C(=O)N2CCC3C(CCN3C(=O)OC(C)(C)C)C2)cnn1-c1nn2cccc2c(=O)[nH]1 (stereo not drawn) [Q-0865]
IC50 [1]: 100 nM

Cc1c(C(=O)N2CCn3ccnc3C2)cnn1-c1nn2cccc2c(=O)[nH]1 [Q-0866]
IC50 [1]: 6700 nM

Cc1c(C(=O)N2CCn3c(nnc3C3CC3)C2)cnn1-c1nn2cccc2c(=O)[nH]1 [Q-0868]
IC50 [1]: 10000 nM

Cc1c(C(=O)N2C3CCC2CN(c2ccc(C#N)cc2)C3)cnn1-c1nn2cccc2c(=O)[nH]1 [Q-0869]
IC50 [1]: 100 nM

Cc1c(C(=O)N2C3CCC2CN(c2ccc(C(F)(F)F)cc2)C3)cnn1-c1nn2cccc2c(=O)[nH]1 [Q-0870]
IC50 [1]: 300 nM

Cc1c(C(=O)N2CCn3cc(C(F)(F)F)nc3C2)cnn1-c1nn2cccc2c(=O)[nH]1 [Q-0871]
IC50 [1]: 4000 nM

Cc1c(C(=O)N2CCN3C(=O)CC[C@H]3C2)cnn1-c1nn2cccc2c(=O)[nH]1 [Q-0872]
IC50 [1]: 10000 nM

Cc1c(C(=O)N2CCn3cncc3C2)cnn1-c1nn2cccc2c(=O)[nH]1 [Q-0873]
IC50 [1]: 10000 nM

Cc1c(C(=O)N2CC3CC(C#N)CC3C2)cnn1-c1nn2cccc2c(=O)[nH]1 (stereo not drawn) [Q-0874]
IC50 [1]: 1100 nM

Cc1c(C(=O)N2C3CCC2CN(c2ccccc2)C3)cnn1-c1nn2cccc2c(=O)[nH]1 [Q-0875]
IC50 [1]: 76 nM

Cc1c(C(=O)N2C3CCC2CN(c2cccc(F)c2)C3)cnn1-c1nn2cccc2c(=O)[nH]1 [Q-0876]
IC50 [1]: 88 nM

Cc1c(C(=O)N2C3CCC2CN(c2ccc(C#N)cn2)C3)cnn1-c1nn2cccc2c(=O)[nH]1 [Q-0877]
IC50 [1]: 200 nM

Cc1c(C(=O)N2CC3CCN(C(=O)OC(C)(C)C)C3C2)cnn1-c1nn2cccc2c(=O)[nH]1 (stereo not drawn) [Q-0878]
IC50 [1]: 800 nM

Cc1c(C(=O)N2CC3CC(C(N)=O)CC3C2)cnn1-c1nn2cccc2c(=O)[nH]1 (stereo not drawn) [Q-0879]
IC50 [1]: 10000 nM

Cc1c(C(=O)N2C3CCC2CN(c2ccc(F)cc2)C3)cnn1-c1nn2cccc2c(=O)[nH]1 [Q-0880]
IC50 [1]: 87 nM

Cc1c(C(=O)N2CCN3CCC[C@@]3(C)C2)cnn1-c1nn2cccc2c(=O)[nH]1 [Q-0881]
IC50 [1]: 2300 nM

Cc1c(C(=O)N2C3CCC2CN(c2ccccn2)C3)cnn1-c1nn2cccc2c(=O)[nH]1 [Q-0882]
IC50 [1]: 200 nM

Cc1c(C(=O)N2CCC(C#N)CC2)cnn1-c1nn2cccc2c(=O)[nH]1 [Q-0883]
IC50 [1]: 1300 nM

CCN1CC2CCC(C1)N2C(=O)c1cnn(-c2nn3cccc3c(=O)[nH]2)c1C [Q-0884]
IC50 [1]: 200 nM

Cc1c(C(=O)N2CCN(C(=O)OC(C)(C)C)CC2C)cnn1-c1nn2cccc2c(=O)[nH]1 (stereo not drawn) [Q-0885]
IC50 [1]: 400 nM

Cc1c(C(=O)N2CCC(N3CCCC3)CC2)cnn1-c1nn2cccc2c(=O)[nH]1 [Q-0886]
IC50 [1]: 5400 nM

Cc1c(C(=O)N2CCC(OCc3ccc(F)cc3)CC2)cnn1-c1nn2cccc2c(=O)[nH]1 [Q-0893]
IC50 [1]: 300 nM

Cc1c(C(=O)N2C3CCC2CN(c2ccc(Cl)cc2)C3)cnn1-c1nn2cccc2c(=O)[nH]1 [Q-0894]
IC50 [1]: 100 nM

Cc1c(C(=O)N2CCN(CCC#N)CC2)cnn1-c1nn2cccc2c(=O)[nH]1 [Q-0895]
IC50 [1]: 1400 nM

Cc1c(C(=O)N2CC[C@@H]3CN(C(=O)OC(C)(C)C)C[C@@H]32)cnn1-c1nn2cccc2c(=O)[nH]1 [Q-0897]
IC50 [1]: 500 nM

Cc1c(C(=O)N2CCC23CC(F)(F)C3)cnn1-c1nn2cccc2c(=O)[nH]1 [Q-0900]
IC50 [1]: 2300 nM

Cc1c(C(=O)N2CCN(CCS(C)(=O)=O)CC2)cnn1-c1nn2cccc2c(=O)[nH]1 [Q-0901]
IC50 [1]: 10000 nM

Cc1c(C(=O)N2CC3CC(C(F)(F)F)CC3C2)cnn1-c1nn2cccc2c(=O)[nH]1 (stereo not drawn) [Q-0902]
IC50 [1]: 100 nM

Cc1c(C(=O)N2CCC3(CC2)CC3c2nnc(-c3cccc(F)c3)o2)cnn1-c1nn2cccc2c(=O)[nH]1 (stereo not drawn) [Q-0905]
IC50 [1]: 600 nM

Cc1c(C(=O)N2CCN(c3nccs3)CC2)cnn1-c1nn2cccc2c(=O)[nH]1 [Q-0907]
IC50 [1]: 400 nM

Cc1c(C(=O)N2CCC3(CC2)OCc2ccccc23)cnn1-c1nn2cccc2c(=O)[nH]1 [Q-0909]
IC50 [1]: 100 nM

Cc1c(C(=O)N2CCCC3C2CCCN3C(=O)OC(C)(C)C)cnn1-c1nn2cccc2c(=O)[nH]1 (stereo not drawn) [Q-0912]
IC50 [1]: 900 nM

Cc1c(C(=O)N2CCC3CN(C(=O)OC(C)(C)C)CC32)cnn1-c1nn2cccc2c(=O)[nH]1 (stereo not drawn) [Q-0914]
IC50 [1]: 600 nM

Cc1c(C(=O)N2CCN(C(=O)OC(C)(C)C)CC2(C)C)cnn1-c1nn2cccc2c(=O)[nH]1 [Q-0916]
IC50 [1]: 700 nM

Cc1c(C(=O)N2CCC(n3cncn3)CC2)cnn1-c1nn2cccc2c(=O)[nH]1 [Q-0919]
IC50 [1]: 1700 nM

Cc1c(C(=O)N2CCN(S(=O)(=O)c3cccc(C(F)(F)F)c3)CC2)cnn1-c1nn2cccc2c(=O)[nH]1 [Q-1826]
IC50 [2]: 2 nM

CC(=O)Nc1nc(C)c(S(=O)(=O)N2CCN(C(=O)c3cnn(-c4nn5cccc5c(=O)[nH]4)c3C)CC2)s1 [Q-1827]
IC50 [2]: 1 nM

Cc1c(C(=O)N2CCN(S(=O)(=O)c3ccc4c(c3)OCO4)CC2)cnn1-c1nn2cccc2c(=O)[nH]1 [Q-1829]
IC50 [2]: 2 nM

Cc1c(C(=O)N2CCN(S(=O)(=O)c3ccc(Cl)c(Cl)c3)CC2)cnn1-c1nn2cccc2c(=O)[nH]1 [Q-1830]
IC50 [2]: 2 nM

Cc1c(C(=O)N2CCN(S(=O)(=O)c3ccc4ccccc4c3)CC2)cnn1-c1nn2cccc2c(=O)[nH]1 [Q-1831]
IC50 [2]: 3 nM

Cc1c(C(=O)N2CCN(S(=O)(=O)c3cnn(C)c3)CC2)cnn1-c1nn2cccc2c(=O)[nH]1 [Q-1832]
IC50 [2]: 3 nM

CC(=O)Nc1ccc(S(=O)(=O)N2CCN(C(=O)c3cnn(-c4nn5cccc5c(=O)[nH]4)c3C)CC2)cc1 [Q-1833]
IC50 [2]: 1 nM

Cc1c(C(=O)N2CCN(S(=O)(=O)c3ccc(C(F)(F)F)cc3)CC2)cnn1-c1nn2cccc2c(=O)[nH]1 [Q-1834]
IC50 [2]: 1 nM

Cc1c(C(=O)N2CCN(S(=O)(=O)c3cc(C(F)(F)F)cc(C(F)(F)F)c3)CC2)cnn1-c1nn2cccc2c(=O)[nH]1 [Q-1835]
IC50 [2]: 4 nM

Cc1c(C(=O)N2CCN(S(=O)(=O)c3ccc(Br)cc3)CC2)cnn1-c1nn2cccc2c(=O)[nH]1 [Q-1837]
IC50 [2]: 1 nM

COc1ccc(OC)c(S(=O)(=O)N2CCN(C(=O)c3cnn(-c4nn5cccc5c(=O)[nH]4)c3C)CC2)c1 [Q-1839]
IC50 [2]: 2 nM

Cc1c(C(=O)N2CCN(S(=O)(=O)c3ccc(Cl)c(C(F)(F)F)c3)CC2)cnn1-c1nn2cccc2c(=O)[nH]1 [Q-1840]
IC50 [2]: 3 nM

Cc1c(C(=O)N2CCN(S(=O)(=O)c3cccc(C(=O)O)c3)CC2)cnn1-c1nn2cccc2c(=O)[nH]1 [Q-1845]
IC50 [2]: 2 nM

Cc1c(C(=O)N2CCN(S(=O)(=O)c3cnc4ccccc4c3)CC2)cnn1-c1nn2cccc2c(=O)[nH]1 [Q-1864]
IC50 [2]: 4 nM

Cc1c(C(=O)N2CCN(S(=O)(=O)c3ccc(Cl)c4nonc34)CC2)cnn1-c1nn2cccc2c(=O)[nH]1 [Q-1885]
IC50 [2]: 10 nM

Cc1c(C(=O)N2CCC(S(=O)(=O)c3ccccc3)CC2)cnn1-c1nn2cccc2c(=O)[nH]1 [Q-1984]
IC50 [2]: 1 nM

Cc1c(C(=O)N2CCC(S(C)(=O)=O)CC2)cnn1-c1nn2cccc2c(=O)[nH]1 [Q-1985]
IC50 [2]: 2 nM

Cc1c(C(=O)N2CCC(S(=O)(=O)N3CCCC3)CC2)cnn1-c1nn2cccc2c(=O)[nH]1 [Q-2007]
IC50 [2]: 1 nM

Cc1c(C(=O)N2CCc3[nH]nc(C(F)(F)F)c3C2)cnn1-c1nn2cccc2c(=O)[nH]1 [Q-2031]
IC50 [2]: 3 nM

Cc1c(C(=O)N2CCN(C(=O)c3ccco3)CC2)cnn1-c1nn2cccc2c(=O)[nH]1 [Q-2032]
IC50 [2]: 6 nM

Cc1c(C(=O)N2CCN(C3COC3)CC2)cnn1-c1nn2cccc2c(=O)[nH]1 [Q-2041]
IC50 [2]: 3 nM

Cc1c(C(=O)N2CC(c3ccncc3F)C2)cnn1-c1nn2cccc2c(=O)[nH]1 [Q-2043]
IC50 [2]: 5 nM

Cc1c(C(=O)N2CCc3c(c(C(F)(F)F)nn3C)C2)cnn1-c1nn2cccc2c(=O)[nH]1 [Q-2048]
IC50 [2]: 4 nM

Cc1c(C(=O)N2CC[C@@H]2c2ccc(F)nc2)cnn1-c1nn2cccc2c(=O)[nH]1 [Q-2054]
IC50 [2]: 4 nM

Cc1c(C(=O)N2CC[C@H]2c2ccc(F)nc2)cnn1-c1nn2cccc2c(=O)[nH]1 [Q-2055]
IC50 [2]: 7 nM
